Data as given in patent EP1261587B1, “STILBENE DERIVATIVES, THEIR PREPARATION AND THEIR USE AS ANTIVIRAL AGENTS” (priority 1999, dated 2001).
Where a name gives a salt, the structure may show the parent alone. Read-outs that look alike come from different tables or passages of the source.

How the values were obtained:
[1] = target: T1, Tat-TAR complex (recombinant Tat, synthetic TAR duplex) (Human immunodeficiency virus type 1 group M subtype B, UniProt P04608); test: competition Tat-TAR gel-shift assay; format: binding, HIV-1
T1 construct: purchased Medical Research Council (MRC), Cambridge, U.K
T1 sequence (P04608 whole entry, one chain of several): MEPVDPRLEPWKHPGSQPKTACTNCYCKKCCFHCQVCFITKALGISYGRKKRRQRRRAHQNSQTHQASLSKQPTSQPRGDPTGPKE
Text: The in vitro inhibition of the interaction between Tat and TAR can be shown by a competition Tat-TAR gel-shift assay. Through binding of the protein (recombinant Tat, Medical Research Council (MRC), Cambridge, U.K. - for the sequence of recombinant Tat see Churcher et al., J. Mol. Biol. 230, 90-110 (1993)) to the RNA (synthetic TAR duplex, Genset, Paris, France; for the sequence see Hamy et al., J. Mol. Biol. 230, 111-123 (1993)), the overall size and the charge/weight ratio of the formed duplex are changed, so that electrophoretic migration through a native polyacrylamide gel is affected. By radioactive labelling of the RNA and subsequent autoradiography, free RNA and complexes can be discriminated based on their relative positions in the gel (Hamy et al., J. Mol. Biol. 230, 111-123 (1993)). If the binding reaction with a test substance is able to prevent the protein binding to the radiolabelled RNA, this competition for binding can be visualized on the autoradiography as a decreased intensity of the retarded band. In more detail, compounds of the formula I are tested as follows:
The 14-mer strand of duplex TAR-RNA is labelled in the presence of T4 polynucleotide kinase (New England Biolabs, Beverly, MA, USA) using [γ-^32P]ATP (Amersham, Little Chalfont, UK), 10 mM DTT (=dithiothreitol), 50 mM Tris.HCI (pH 7.4, Tris = Tris(hydroxymethyl)aminomethane), 0.77 % (w/v) spermidine (Fluka, Switzerland) and 10 units T4 polynucleotide kinase incubated at 37 °C for 20 min. After heat-treatment (65 °C, 10 min) for enzyme inactivation, the unincorporated [γ-^32P]ATP is removed by chromatography through a Sephadex NAP-10 column (Pharmacia, Uppsala, Sweden) equilibrated with water. Prior to the in-vitro-binding reaction, the labelled 14-mer is annealed to 1.5 equivalents of unlabelled 17-mer by heating to 90 C for 3 min, followed by slow cooling down to 0 °C. […] The CD50-values that are obtained are preferably in the range of from 10 x 10^-9 to 10 x 10^-6 M, more preferably from 10 x 10^-9 to 0.5 x 10^-6 M.

[2] = maximal tolerated dose (MTD) determination in mice; format: in vivo
Procedure: After single application of up to 50 mg/kg by i.v. administration to mice no signs of overt toxicity are observed during 8 days of observation. In detail, the assay is conducted as follows: The assay is designed for the determination of the maximal tolerated dose (MTD) For the MTD determination, three six to eight week old female Balb/c AnCbif Tif mice (Ciba animal farm, Sisseln, Switzerland) per dose group are treated once i.v. The dosage is increased until toxic effects are observed within 7 days after drug treatment. After 7 days the animals are euthanasized and organs are macroscopically inspected. The MTD is the dose where all three animals still survive. For example, when the compounds of examples 2 or 4, trans-5-(Acetoacetylamino)-2-[2-{4-(4,5-dihydro-3-methyl-5-oxo-1H-pyrazol-1-yl)-2-sulfophenyl]ethenyl]-benzenesulfonic acid or N,N'-Bis(trans-4-{2-[4-(3-methyl-5-oxo-4,5-dihydro-1H.-pyrazol-1-yl)-2-sulfo-phenyl]-vinyl}-2-sulfophenyl)-[1,3,5]triazine-2,4,6-triamine, are dissolved in sterile sodium chloride solution 0.9%, the MTD after i.v. administration is > 50 mg/kg.

HIV-1/LAV.04 = test: inhibition of viral growth of HIV-1 in PBLs (RT activity in cell supernatants); format: cell-based; details: concentration at which 90 % reduction of RT activity versus untreated control is observed; human PBLs infected with HIV-1/LAV.04
Procedure: In brief, Peripheral Blood Mononuclear Lymphocytes (PBLs) are obtained from the blood of healthy volunteers by leukapheresis. Cells (1 x 10^6/ml) are cultured for 2 days in RPMI-1640 (Gibco), supplemented with 10 % heat-inactivated fetal calf serum (Gibco), 50 mg/ml streptomycin, 50 U/ml penicillin (Amimed), 2 nM glutamine and 10 mM hepes buffer (Gibco). Stimulated lymphocytes are obtained by culturing in the presence of PHA (0.25 mg/ml; Wellcome diagnostics, Templehill, Dartford, England). PHA-lymphocyte stimulation is confirmed by the increase in cell size (Scattergram, FACS analysis). Cells are exposed to HIV-1/LAV.04 (see Barre-Sinoussi et al., Science 220, 868-871 (1983)) for 6 h. […] Medium is changed every 3 days and activity of viral reverse transcriptase (RT activity) is determined in cell supernatants, serving as a measure for the presence of virus and thus of progression of infection according to known procedures (see Willey et al., J. Virol. 62, 353-8 (1991) for details of the method). In brief, RT determination is possible as follows: The RT activity is determined in 50mM Tris (α,α,α--tris(hydroxymethyl)methylamine, ultra pure, Merck, Federal Republic of Germany) pH 7.8; 75mM of KCl, 2mM of dithiothreitol, 5mM of MgCl2; 0.05% Nonidet P-40 (detergent; Sigma, Switzerland); 50 µg/ml of polyadenylic acid (Pharmacia, Sweden); and 1.6 µg/ml of dT(12-18) (Sigma, Switzerland). […]

[3] = concentration giving 50 % decrease in intensity of the retarded band (Tat-TAR complex), 20 nM recombinant Tat, read-out: CD50 (the source's name)

Question: Which results are given for `CC1=NN(c2ccc(/C=C/c3ccc(Nc4nc(N)nc(Nc5ccc(/C=C/c6ccc(N7N=C(C)CC7=O)cc6S(=O)(=O)O)cc5S(=O)(=O)O)n4)c(S(=O)(=O)O)c3)c(S(=O)(=O)O)c2)C(=O)C1` [Example 4, N,N'-Bis(trans-4-{2-[4-(3-methyl-5-oxo-4,5-dihydro-1.H.-pyrazol-1-yl)-2-sulfophenyl]-vinyl}-2-sulfophenyl)-[1,3,5]triazine-2,4,6-triamine]?
Answer: IC50 [1, 3]: 50 nM; MTD ([2]; single i.v. administration, female mice, dissolved in sterile sodium chloride solution 0.9%, dose where all three animals still survive, 10080 min): > 50 mg/kg

Question: For `CC(=O)CC(=O)Nc1ccc(/C=C/c2ccc(N3N=C(C)CC3=O)cc2S(=O)(=O)O)c(S(=O)(=O)O)c1` [Example 2, trans-5-(Acetoacetylamino)-2-[2-{4-(4,5-dihydro-3-methyl-5-oxo-1H-pyrazol-1-yl)-2-sulfophenyl}ethenyl]-benzenesulfonic acid], which IC50 [1] is on record?
Answer: 20 nM

Question: What about the ED90 (HIV-1/LAV.04) of the same compound?
Answer: 30000 nM

Question: And the MTD at 7 days ([2]; female, Balb/c AnCbif Tif, mouse, in vivo, iv)?
Answer: > 50 mg/kg

Question: Which IC50 [1, 3] does the source give for `CC1=NN(c2ccc(/C=C/c3ccc(NC(=O)Nc4ccc(/C=C/c5ccc(N6N=C(C)C(N=Nc7ccccc7C(=O)O)C6=O)cc5S(=O)(=O)O)cc4S(=O)(=O)O)c(S(=O)(=O)O)c3)c(S(=O)(=O)O)c2)C(=O)C1N=Nc1ccccc1C(=O)O` (stereo not drawn) [Example 5, N,N'-Bis(trans-4-{2-[4-(3-methyl-5-oxo-4-(o-carboxyphenylazo)-4,5-dihydro-1.H.-pyrazol-1-yl)-2-sulfo-phenyl]-vinyl}-2-sulfophenyl)-urea tetrasodium salt] here?
Answer: 70 nM

Question: With `CC1=NN(c2ccc(/C=C/c3ccc(Nc4nc(Cl)nc(Nc5ccc(/C=C/c6ccc(N7N=C(C)CC7=O)cc6S(=O)(=O)O)cc5S(=O)(=O)O)n4)c(S(=O)(=O)O)c3)c(S(=O)(=O)O)c2)C(=O)C1` [Example 3, N,N'-Bis(trans-4-{2-[4-(3-methyl-5-oxo-4,5-dihydro-1.H.-pyrazol-1-yl)-2-sulfophenyl]-vinyl}-2-sulfophenyl)-2-chloro-[1,3,5]triazine-4,6-diamine] as the compound, how does the IC50 [1, 3] read?
Answer: 50 nM

Question: What about the ED90 (HIV-1/LAV.04) of the same compound?
Answer: 20000 nM
